According to patent US20220378739A1, “NATURAL KILLER CELL IMMUNOTHERAPY FOR THE TREATMENT OF GLIOBLASTOMA AND OTHER CANCERS” (BOARD OF REGENTS, THE UNIVERSITY OF TEXAS SYSTEM, priority 2019, published 2022):
Entries after “also recorded” stand apart in the source; their conditions may differ.

Key:
[1] = system: K562 targets; assay type: cell-based, human; conditions: 48 hours
Method: (§1) NK cells were co-cultured for 5 hours with K562 or GSCs target cells at an optimized effector:target ratio of 5:1 together with CD107a PE-CF594 (BD Biosciences), monensin (BD GolgiStopTM) and BFA (Brefeldin A, Sigma Aldrich). NK cells were incubated without targets as the negative control and stimulated with PMA (50 ng/mL) and ionomycin ([…], Sigma Aldrich) as positive control. Cells were collected, washed and stained with surface antibodies (mentioned above), fixed/permeabilized (BD Biosciences) and stained with IFN-7 v450 and TNF-α Alexa700 (BD Biosciences) antibodies.
(§2) NK cell cytotoxicity was assessed using chromium (siCr) release assay. Briefly, K562 or GSCs target cells were labeled with siCr (PerkinElmer Life Sciences, Boston, Mass.) at 50 μCi/5×10^5 cells for 2 hours. ^51Cr-labeled K562/GSC targets (5×105) were incubated for 4 h with serially diluted magnetically isolated NK cells in triplicate. Supernatants were then harvested and analysed for ^51Cr content.
For studies of NK cell suppression by GSCs and human astrocytes, magnetically selected healthy NK cells were cultured in Serum-free Stem Cell Growth Medium (SCGM; CellGro/CellGenix) supplemented with 5% glutamine, 5 μM HEPES (both from GIBCO/Invitrogen), and 10% FCS (Biosera) in 96-well flat-bottomed plates (Nunc) at 100,000/100D11. NK cells were co-cultured either alone (positive control) or with GSCs or astrocytes at a 1:1 ratio for 48 hours at 37° C. before performing functional assays to assess NK cells cytotoxicity.
(§3) GSCs and purified NK cells were co-cultured for 48 hours in the presence of anti-TGFβ 123 (5 μg/ml) (R&D), HLA-ABC blocking antibody (clone W 6/32, Biolegend), CD44 blocking antibody (clone IM7, Biolegend), ILT-2 (CD85J) blocking antibody (clone HP-F1, ThermoFisher), CD155 blocking antibody (clone D171, GenTex), CD112 blocking antibody (clone TX31, Biolegend), 10 μM LY2109761, 10 μM galunisertib (LY2157299), 10 μM Cilengitide (Cayman Chemical) or 1 μM MMP-2/MMP-9 inhibitor I (Millipore). Cytotoxicity assays were then performed as described above.

[2] = system: TGF-β1 Smad⅔ signaling pathway in NK cells; assay: Phospho-Smad⅔ assay in NK cells co-cultured with GSCs; assay type: cell-based, human; conditions: for p-Smad⅔ expression (MFI) in NK cells co-cultured with GSCs: healthy control NK cells + GSCs, inhibitor 10 μM
Method: as §3
NK cells were stained with Live/dead-aqua and CD56 ECD (Beckman Coulter) for 20 min in the dark at RT, washed with PBS fixed for 10 min in the dark. After one wash, the cells were permeabilized (Beckman Coulter kit) and stained with p-(5465/5467)-Smad2/p-(5423/5425)/Smad3-Alexa 647 mAb Phosflow antibody (BD Biosciences) for 30 minutes at room temperature. Cells incubated with 10 ng/ml recombinant TGF-β for 45 minutes in 37° C. were used as positive control.

[3] = system: GSC targets; assay: NK cell functional assay (51Cr release; CD107a, IFN-γ, TNF-α) against GSC targets after co-culture with GSCs; assay type: cell-based, human; conditions: 48 hours co-culture with GSCs 1:1; inhibitor 10 μM
Method: as §1, §2
For studies of NK cell suppression by GSCs and human astrocytes, magnetically selected healthy NK cells were cultured in Serum-free Stem Cell Growth Medium (SCGM; CellGro/CellGenix) supplemented with 5% glutamine, 5 μM HEPES (both from GIBCO/Invitrogen), and 10% FCS (Biosera) in 96-well flat-bottomed plates (Nunc) at 100,000/100D11. […]

[4] = system: NKG2D, CD9, CD103 on TiNKs; assay: Flow cytometry of TiNKs extracted from mouse brain tumor; assay type: in vivo, mouse (NSG)
Description: FIG. 20. […] Heat map representation of the surface markers NKG2D, CD9, CD103, PD-1 and CD69. Once the mice were sacrificed, the brain tissue was processed and TiNKs were extracted from the GBM tumor. The cells we then stained for the indicated surface markers and analyzed using flow cytometry. The expression is presented as percentage of the cells expressing each marker within the total NK cell population.
Brain tissue from the animals was collected and NK cells were isolated using a percoll (GE Healthcare) gradient fallowing protocol described by Pino et al^57. Briefly, brain tissue was dissociated using a 70 μm cell strainer (Life Science, Durham, N.C.). Cell suspension was re suspended in a 30% isotonic percoll solution and layer on top of a 70% isotonic percoll solution. Cells were centrifuged at 500 G for 30 minutes and 18 °C with no brake. 2-3 ml of the 70%-30% interface was collected in a clean tube and washed with PBS 1X. After this procedure, cells were ready for immunostaining with mouse CD45, human CD45, CD56, CD3, CD103, CD9, CD69, PD-1 and NKG2D all from Biolegend.

[5] = system: soluble TGF-β1; assay: TGF-β ELISA of NK cell/GSC co-culture supernatant; assay type: cell-based, human; conditions: NK cells + GSCs, cilengitide 10 μM, 48 hours
Method: NK cells and GSCs were either co-cultured or cultured alone for 48 hours in serum free SCGM growth medium. After 48 hours, supernatants were collected and secretion of TGF R and MMP2/3/9 was assessed in the supernatant by TGFβ1 ELISA kit (R&D systems) or MMP2/3/9 luminex kit (eBiosciences) as per the manufacturer's protocol.

[6] = system: patient-derived GSCs; assay: Xenogeneic (PDX) NSG mouse model of GBM; assay type: in vivo
Method: To test this prediction, a PDX mouse model of patient-derived GSC was used, in which, ffLuc+ patient-derived GSCs (0.5×10^6) were stereotactically implanted on day 0 through a guide-screw into the right forebrain of NOD/SCID/IL2Rγc null mice (n=4-5 per group). After 7 days, the mice were treated intratumorally with 2.0×10^6 human NK cells every 7 days for 11 weeks (FIG. 5A) with either galunisertib to block the TGF-β signaling or cilengitide to block the integrin pathway. Galunisertib was administered five times a week by oral gavage and cilengitide three times a week by intraperitoneal injection. Animals implanted with tumor that were either untreated or received NK cells alone, galunisertib alone or cilengitide alone served as controls.
To assess the anti-tumor effect of NK cells against GSCs in vivo, a NOD/SCID IL-2R7null (NSG) human xenograft model (Jackson Laboratories, Bar Harbor, Me.) was used. Intracranial implantation of GSCs into male mice was performed as previously described^55. A total of 60 mice were used. 0.5×10^5 GSCs were implanted intracranially into the right frontal lobe of 5 week old NSG mice using a guide-screw system implanted within the skull. To increase uniformity of xenograft uptake and growth, cells were injected into 10 animals simultaneously using a multiport Microinfusion Syringe Pump (Harvard Apparatus, Holliston, Mass.). Animals were anesthetized with xylazine/ketamine during the procedure. For in vivo bioluminescent imaging, GSCs were engineered to express luciferase by lentivirus transduction. Kinetics of tumor growth was monitored using weekly bioluminescence imaging (BLI; Xenogen-IVIS 200 Imaging system; Caliper, Waltham, Mass.). Signal quantitation in photons/second (p/s) was performed by determining the photon flux rate within standardized regions of interest (ROI) using Living Image software (Caliper). […] expanded donor peripheral blood NK cells^56 were injected intracranially via the guide-screw at day 7 post tumor implantation, and then every 7 days for 11 weeks. Mice were treated with either cilengitide or galunisertib (both from MCE Med Chem Express, Monmouth Junction, NJ) in the presence or absence of intracranial NK cell injection. Cilengitide was administered intraperitoneally 3 times a week starting at day 1 (250 μg/100 μl PBS) while galunisertib was administered orally (75 mg/kg) by gavage 5 days a week starting at day 1 (see FIG. 5A). […]
Brain tissue specimens from untreated control mice, mice treated with either NK cells alone, cilengitide alone, galunisertib alone or with combination therapy of NK+ cilengitide or NK+ galunisertib were collected. […] Sections lacking tumor were also evaluated for evidence of meningoencephalitis using a Leica DM 2500 light microscope by a board-certified veterinary pathologist. […]

[7] = system: TiNKs / HC-NK cells rendered dysfunctional by GSCs; assay: Reversal of established NK cell dysfunction (TiNKs ex vivo; NK cell recovery assays); assay type: cell-based, human
Method: FIGS. 11A-11G. […] (FIG. 11A) NK cells were incubated with or without galunisertinib (10 μM) or LY2109761 (10 μM) for 48 hours. Representative zebra plots show their CD107a, IFN-γ, and TNF-α response to K562 targets. NK cells were gated on CD3-CD56+ lymphocytes. Inset numbers are the percentages of CD107a-, IFN-γ- or TNF-α-positive NK cells within the gated NK cell population. (FIGS. 11B-11C) NK cells were cultured either alone or with GSCs in a 1:1 ratio with or without LY2109761 or galunisertib for 48 hrs. Representative zebra plots and summary box plots show their CD107, IFN-γ, and TNF-α expression response to K562 (FIG. 11B) or GSC (FIG. 11C) targets. Effector:target ratio is 5:1. NK cells were defined as CD3-CD56+ lymphocytes. Inset numbers are the percentages of CD107a-, IFN-γ- or TNF-α-positive NK cells (n=7, n=4 respectively). (FIG. 11D) TiNK cells were cultured for 24 hours in media with 5 ng/ml IL-15 with or without galunisertib. Representative zebra plots and bar graph summary show their CD107, IFN-γ, and TNF-α response to K562 targets. Effector:target ratio is 5:1. NK cells were gated on CD3-CD56+ lymphocytes. Inset numbers are the percentages of CD107a-, IFN-γ- or TNF-α-positive NK cells within the indicated regions. (n=3). (FIG. 11E) TiNK cells and paired PB-NK cells from GBM patients were cultured in the presence or absence of galunisertib for 12 hours. The bar graphs summarize the mean fluorescence intensity (MFI) for their p-Smad⅔ expression. Paired t test was performed to determine statistical significance (n=3). (FIG. 11F) Specific lysis (^51Cr release assay) of K562 targets by NK cells. After 48 hours of culture alone (blue lines) or with GSCs, healthy donor NK cells were either left with GSCs (red lines), or purified and re-suspended in media for another 48 hours (black lines). NK cells were then collected and used for ^51Cr release assay (n=4). (FIG. 11G) Specific lysis (^51Cr release assay) of K562 targets by NK cells. After 48 hours of culture alone (blue lines) or with GSCs, healthy donor NK cells were either left with GSCs ([…]) or purified and cultured in SCGM media plus 5 ng/ml IL-15 with (black lines) or without galunisertib (10 μM) (gray lines) for […]. At the end of the culture period, their cytotoxicity was tested against k562 targets by ^51Cr release assay (n=4).
NK cells were cultured either with GSCs in a 1:1 ratio or alone for 48 hours. After 48 hours of co-incubation, NK cells were then either purified again by bead selection and resuspended in SCGM media or remained in culture with GSCs for an additional 48 hours and then used for ^51Cr release assay. In a second assay, after reselection, NK cells were cultured for another 5 days in SCGM in the presence of 5 ng/ml IL-15 with or without 10 μM galunisertib before use for ^51Cr release assay.

c1ccc(-c2nn3c(c2-c2ccnc4cc(OCCN5CCOCC5)ccc24)CCC3)nc1 [LY2109761]
NK cell function (CD107a, IFN-γ, TNF-α response to K562), NK cells without GSCs ([1]; NK cells alone, inhibitor 10 μM): neither inhibitor affected NK cell function
p-Smad⅔ expression (MFI) in NK cells co-cultured with GSCs [2]: prevented GSCs from activating the TGF-β1 Smad⅔ signaling pathway in NK cells
GSC-induced NK cell dysfunction: natural cytotoxicity against GSC targets [3]: preserving the natural cytotoxicity of NK cells against K562 or GSC targets

O=C(O)[C@@H](Cc1ccccc1)NS(=O)(=O)c1ccc(-c2ccccc2)cc1 [MMP 2/9 inhibitor]
NK cell function in cultures lacking GSCs ([1]; MMP 2/9 inhibitor 1 μM): did not affect NK cell function in cultures lacking GSCs
p-Smad⅔ levels in NK cells with MMP 2/9 inhibitor ([2]; NK cells with or without GSCs, inhibitor 1 μM): decreased p-Smad⅔ levels

CC(C)[C@H]1C(=O)N[C@@H](CCCN=C(N)N)C(=O)NCC(=O)N[C@@H](CC(=O)O)C(=O)N[C@H](Cc2ccccc2)C(=O)N1C [cilengitide]
surface marker expression on TiNKs harvested after sacrifice [4]: protects NK cells from TGF-β induced inhibitory phenotype in vivo
soluble TGF-β1 levels in supernatant [5]: significantly decreased levels of soluble TGF-β1; also recorded: decreased TGF-β production
p-Smad⅔ expression (MFI) in NK cells co-cultured with GSCs [2]: significantly decreased; also recorded: diminished Smad⅔ phosphorylation
tumor bioluminescence (BLI), first experiment ([6]; NK cells intratumorally every 7 days for 11 weeks, galunisertib oral 5 times a week, cilengitide i.p. three times a week): tumor bioluminescence rapidly increased
NK-mediated GBM killing / efficacy in PDX model of GBM (summary statements) ([6]; mouse, in vivo): enhances NK-mediated GBM killing in vivo

IL-15: activating cytokine
reversal of GSC-induced dysfunction of HC-NK cells ([7]; NK cells purified after 48 hours with GSCs, then IL-15 5 ng/ml with or without galunisertib 10 μM): did not reverse the dysfunction of HC-NK cells induced by GSCs
restoration of TiNK function (specific lysis of K562; CD107, IFN-γ, TNF-α) ([7]; TiNKs cultured 24 hours, galunisertib 10 μM or IL-15 5 ng/ml): failed to inactivate the TGF-β1 Smad⅔ signaling pathway and restore NK cell dysfunction
TGF-β1 Smad⅔ signaling in TiNKs ([7]; TiNKs from GBM patients cultured ex vivo, galunisertib 12 hours or IL-15): failed to inactivate the TGF-β1 Smad⅔ signaling pathway
